Consider 8 compounds from ChEMBL document CHEMBL4385632, “Synthesis of novel benzothiazole amides: Evaluation of PPAR activity and anti-proliferative effects in paraganglioma, pancreatic and colorectal cancer cell lines” (2019).

Structures are written as SMILES. Active and inactive are the calls of the source. The calls are words filed in the database; no cut-off is given here. Some results are limits rather than exact numbers.

For one assay, the system named is SW480. The experiment in a line: Cytotoxicity against human SW480 cells assessed as reduction in cell viability at 75 uM incubated for 72 hrs by MTT assay. The format is functional. The conditions noted are these: for inhibition at 75 µM: SW480, 72 h.
Assay [1] in a line: (§1) Cytotoxicity against human PTJ64i cells assessed as reduction in cell viability at 75 uM incubated for 72 hrs by MTT assay. The format is functional.
For assay [2], the target named is T1, Peroxisome proliferator-activated receptor delta (Homo sapiens) (UniProt Q03181).
T1 sequence (whole entry): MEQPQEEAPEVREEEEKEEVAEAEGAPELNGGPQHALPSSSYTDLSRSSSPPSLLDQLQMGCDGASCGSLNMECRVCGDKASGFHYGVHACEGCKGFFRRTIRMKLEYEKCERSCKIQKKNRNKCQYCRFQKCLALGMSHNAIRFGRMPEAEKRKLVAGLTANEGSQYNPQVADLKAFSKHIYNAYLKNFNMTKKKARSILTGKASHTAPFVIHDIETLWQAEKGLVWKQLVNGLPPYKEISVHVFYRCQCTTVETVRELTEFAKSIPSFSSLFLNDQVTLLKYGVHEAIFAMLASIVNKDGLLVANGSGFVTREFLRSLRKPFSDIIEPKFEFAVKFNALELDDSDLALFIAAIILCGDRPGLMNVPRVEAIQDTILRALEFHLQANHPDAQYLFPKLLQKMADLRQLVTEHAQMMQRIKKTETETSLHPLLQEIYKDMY
Put plainly: Antagonist activity at GAL4-tagged human PPARdelta LBD expressed in human HepG2 cells assessed as inhibition of L-165,041-induced receptor transactivation at 25 uM incubated for 20 hrs by luciferase reporter gene assay relative to control. The class given is cell-based. On the technique in general: Reporter assays use an easily measured gene product as a stand-in for the process of interest.

For a further assay, the system named is HT-29. Put plainly: Cytotoxicity against human HT-29 cells assessed as reduction in cell viability at 75 uM incubated for 72 hrs by MTT assay. The class given is functional. The conditions noted are these: for inhibition at 75 µM: HT-29, 72 h. In general terms: Tetrazolium dyes change colour on reduction, which living cells bring about.
The test system of another assay is ASPC1. Put plainly: Cytotoxicity against human AsPC1 cells assessed as reduction in cell viability at 75 uM incubated for 72 hrs by MTT assay. The format is functional. As to conditions: for inhibition at 75 µM: ASPC1, 72 h.
The test system of a further assay is Capan-2. Put plainly: Cytotoxicity against human Capan2 cells assessed as reduction in cell viability at 75 uM incubated for 72 hrs by MTT assay. The class given is functional. The conditions noted are these: for inhibition at 75 µM: Capan-2, 72 h.
A short description of assay [3]: (§2) Cytotoxicity against human PTJ86i cells assessed as reduction in cell viability at 75 uM incubated for 72 hrs by MTT assay. The class given is functional.
In assay [4] the target is T2, Peroxisome proliferator-activated receptor gamma (Homo sapiens) (UniProt P37231).
T2 sequence (whole entry): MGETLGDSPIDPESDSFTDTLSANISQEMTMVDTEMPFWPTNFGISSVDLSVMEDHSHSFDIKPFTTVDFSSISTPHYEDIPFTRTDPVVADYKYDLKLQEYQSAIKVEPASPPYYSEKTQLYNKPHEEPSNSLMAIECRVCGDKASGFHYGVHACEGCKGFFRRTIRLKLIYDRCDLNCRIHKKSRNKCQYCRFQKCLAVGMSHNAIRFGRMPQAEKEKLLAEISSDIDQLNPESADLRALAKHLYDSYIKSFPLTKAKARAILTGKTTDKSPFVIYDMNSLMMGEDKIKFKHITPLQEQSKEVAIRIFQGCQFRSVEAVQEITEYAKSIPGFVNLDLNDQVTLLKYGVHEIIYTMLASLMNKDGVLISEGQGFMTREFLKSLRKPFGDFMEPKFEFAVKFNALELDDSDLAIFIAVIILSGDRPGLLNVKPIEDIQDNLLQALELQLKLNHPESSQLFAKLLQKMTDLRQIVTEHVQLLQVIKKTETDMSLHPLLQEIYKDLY
Put plainly: Antagonist activity at GAL4-tagged human PPARgamma LBD expressed in human HepG2 cells assessed as inhibition of rosiglitazone-induced receptor transactivation at 25 uM incubated for 20 hrs by luciferase reporter gene assay relative to control. The class given is cell-based.

In assay [5] the target is T3, Peroxisome proliferator-activated receptor alpha (Homo sapiens) (UniProt Q07869).
T3 sequence (whole entry): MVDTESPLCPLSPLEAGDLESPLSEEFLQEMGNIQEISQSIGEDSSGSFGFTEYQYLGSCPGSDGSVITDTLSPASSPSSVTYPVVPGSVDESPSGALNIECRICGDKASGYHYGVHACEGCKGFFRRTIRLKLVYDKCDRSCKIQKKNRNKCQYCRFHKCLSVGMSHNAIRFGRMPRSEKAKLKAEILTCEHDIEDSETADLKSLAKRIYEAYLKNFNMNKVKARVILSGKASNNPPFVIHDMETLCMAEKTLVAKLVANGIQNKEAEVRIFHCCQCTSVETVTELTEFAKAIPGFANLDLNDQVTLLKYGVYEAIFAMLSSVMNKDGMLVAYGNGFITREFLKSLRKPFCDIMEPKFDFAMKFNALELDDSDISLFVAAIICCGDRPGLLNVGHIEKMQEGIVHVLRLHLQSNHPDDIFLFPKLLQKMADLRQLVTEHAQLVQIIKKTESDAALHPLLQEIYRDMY
The experiment in a line: Antagonist activity at GAL4-tagged human PPARalpha LBD expressed in human HepG2 cells assessed as inhibition of Wy14,643-induced receptor transactivation at 25 uM incubated for 20 hrs by luciferase reporter gene assay relative to control. The format is cell-based.

The species entered for assay [6] is Homo sapiens. The assay is described as §1. The format is functional.
The species entered for assay [7] is Homo sapiens. The description is as §2. The format is functional.
Assay [8] is filed under the species Homo sapiens. The experiment in a line: Cytotoxicity against human PTJ86i cells assessed as reduction in cell viability incubated for 72 hrs by MTT assay. The format is functional, cell-based.
A short description of assay [9]: Inhibition of colony formation in human PTJ86i cells assessed as plating efficiency at 24 uM incubated for 13 days by crystal violet staining based assay (Rvb=30.25%). The format is functional. More on the design: scale not given: the % may be the effect or the level left.
The species named for assay [10] is Homo sapiens. Put plainly: Cytotoxicity against human PTJ64i cells assessed as reduction in cell viability incubated for 72 hrs by MTT assay. The class given is functional, cell-based.
Assay [11] is described as follows: Inhibition of colony formation in human PTJ64i cells assessed as plating efficiency at 24 uM incubated for 13 days by crystal violet staining based assay (Rvb=10.75%). The class given is functional. More on the design: scale not given: the % may be the effect or the level left.
Assay [12] can be described thus: Inhibition of colony formation in human PTJ64i cells assessed as surviving fraction at 24 uM incubated for 13 days by crystal violet staining based assay (Rvb=100%). The format is functional. As to conditions: 312 h, read-out: Survival.
The nature of assay [13]: Inhibition of colony formation in human PTJ86i cells assessed as surviving fraction at 24 uM incubated for 13 days by crystal violet staining based assay (Rvb=100%). The class given is functional. The conditions noted are these: 312 h, read-out: Survival.

Usually inhibition stands for the share of the control response that was lost under treatment.

For `CC(NC(=O)C(Sc1nc2cc(Cl)ccc2s1)c1ccccc1)c1ccccc1` (stereo not given), the inhibition at 75 µM in the assay with SW480 is 60%; in [1] it was at least 50%; in the assay on HT-29 it was at most 50%; with ASPC1, at most 50%; in the assay with Capan-2, at most 50%; in assay [3] it was at least 50%. The %max is under 2% in [2], under 2% in [4] and 45% in assay [5].
As to `CCCCNC(=O)C(Sc1nc2cc(Cl)ccc2s1)c1ccccc1` (stereo not given), the inhibition at 75 µM in the assay on SW480 was at most 50%; in assay [1], at least 50%; in the assay on HT-29, at most 50%; with ASPC1, at most 50%; with Capan-2 it was at most 50%; in assay [3] it was at least 50%. Further, the %max was under 2% in assay [2], under 2% in assay [4] and 31% in assay [5].
For the compound `CC(=O)Nc1ccc(NC(=O)C(Sc2nc3cc(Cl)ccc3s2)c2ccccc2)cc1` (stereo not given), the inhibition at 75 µM is at most 50% in the assay with SW480; at least 50% in [1]; at most 50% with HT-29; at most 50% in the assay with ASPC1; at most 50% in the assay on Capan-2; at least 50% in [3]. Moreover, the %max is under 2% in assay [2], under 2% in [4] and 22% in assay [5].
Regarding `CCC(=O)NC[C@H](Cc1ccc(OCCc2nc(-c3ccccc3)oc2C)cc1)N/C(C)=C\C(=O)c1ccc(C(F)(F)F)cc1`, the inhibition result with SW480, in the assay listed under Homo sapiens [6], with HT-29, in the assay with ASPC1, in the assay with Capan-2 and in the assay listed under Homo sapiens [7] was “Active” throughout.
Turning to `O=C(NCc1ccccc1)C(Sc1nc2cc(Cl)ccc2s1)c1ccccc1` (stereo not given), the inhibition at 75 µM with SW480 was at most 50%; in [1] it was at least 50%; in the assay on HT-29 it was at most 50%; with ASPC1, at most 50%; with Capan-2, at most 50%; in [3], at least 50%. Besides, the %max in [2] was under 2%; in [4], under 2%; in assay [5], 35%.
Regarding `O=C(Nc1ccccc1)C(Sc1nc2cc(Cl)ccc2s1)c1ccccc1` (stereo not given), the inhibition at 75 µM with SW480 is at most 68%; in assay [1], over 90%; in the assay on HT-29, at most 68%; with ASPC1 it was at most 75%; in the assay on Capan-2, at most 75%; in [3], over 90%. For the same compound, the inhibition entry in the assay listed under Homo sapiens [8] and in the assay filed under Homo sapiens [10] was “Dose-dependent effect” each time. The results for the %max in assay [2], in assay [4] and in assay [5] were under 2%, under 2% and 22%, respectively. The Activity amounted to 5.5% in assay [9] and 2.5% in assay [11]. Moreover, the figures for the viability at 24 µM in assay [12] and in assay [13] were 23.3% and 18.2%, respectively.
As to `O=C(NCCCc1ccccc1)C(Sc1nc2cc(Cl)ccc2s1)c1ccccc1` (stereo not given), the inhibition at 75 µM in the assay on SW480 is at most 63%; in assay [1] it was at least 50%; with HT-29, at most 63%; with ASPC1 it was at most 50%; in the assay on Capan-2, at most 50%; in assay [3] it was at least 50%. For the same compound, the %max in assay [2] was under 2%; in assay [4], under 2%; in assay [5], 46%.
As to `O=C(NCCc1ccccc1)C(Sc1nc2cc(Cl)ccc2s1)c1ccccc1` (stereo not given), the inhibition at 75 µM was at most 50% in the assay on SW480; at least 50% in assay [1]; at most 50% with HT-29; at most 74% in the assay on ASPC1; at most 74% in the assay on Capan-2; at least 50% in assay [3]. Moreover, the %max was under 2% in assay [2], under 2% in [4] and 57% in assay [5].
